target: T1, human PTH1 receptor (Homo sapiens, UniProt Q03431); assay: In vitro cAMP signal activity in HKRK-B7 cells (LLC-PK1 cells overexpressing the human PTH1 receptor); type: cell-based; details: HKRK-B7 cells; compound at 1×10^−3 M; cAMP produced as percentage of that produced by hPTH(1-34) at 100 nM
T1 sequence (Q03431 27-593): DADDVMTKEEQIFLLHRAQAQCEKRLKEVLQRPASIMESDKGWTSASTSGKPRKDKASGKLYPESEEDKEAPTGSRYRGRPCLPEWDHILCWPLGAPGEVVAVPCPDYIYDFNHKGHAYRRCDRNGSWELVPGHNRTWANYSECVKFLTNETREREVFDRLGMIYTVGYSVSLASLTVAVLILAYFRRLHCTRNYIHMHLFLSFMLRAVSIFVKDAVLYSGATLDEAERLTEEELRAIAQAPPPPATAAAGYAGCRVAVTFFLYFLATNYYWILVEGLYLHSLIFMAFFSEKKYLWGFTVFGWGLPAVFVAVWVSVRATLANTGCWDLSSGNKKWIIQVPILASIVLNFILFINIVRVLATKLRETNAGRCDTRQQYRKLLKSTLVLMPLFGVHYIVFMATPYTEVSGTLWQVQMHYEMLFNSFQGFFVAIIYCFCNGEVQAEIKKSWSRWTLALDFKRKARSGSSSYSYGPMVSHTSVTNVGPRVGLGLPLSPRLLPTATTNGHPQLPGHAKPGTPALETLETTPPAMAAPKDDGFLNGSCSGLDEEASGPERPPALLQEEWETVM

| cAMP production activity (%) | SMILES |
| --- | --- |
| 77 | Cc1cc(N(C)C(N)=O)cc(C)c1CC[S@TB4](=O)(=O)N1CCC2(CC1)N=C(CCCCCCCCCCC(F)F)NC2=O [Compound 1156, 1-(4-{2-[2-(11,11-difluoro-undecyl)-4-oxo-1,3,8-triaza-spiro[4.5]dec-1-ene-8-sulfonyl]-ethyl}-3,5-dimethyl-phenyl)-1-methyl-urea] |
| 87 | Cc1cc(CNC(N)=O)cc(C)c1CCS(=O)(=O)N1CCC2(CC1)N=C(C1CCC(CCC(F)(F)F)CC1)NC2=O (stereo not shown) [Compound 1313, [3,5-Dimethyl-4-(2-{4-oxo-2-[4-(3,3,3-trifluoro-propyl)-cyclohexyl]-1,3,8-triaza-spiro[4.5]dec-1-ene-8-sulfonyl}-ethyl)-benzyl]-urea] |
| 6.6 | Cc1cc2ccc1CCS(=O)(=O)N1CCC3(CC1)N=C(NC3=O)c1cc(cc(C(F)(F)F)c1)OCCCCCCCN(C)C2=O [Compound 1407] |
| 84 | Cc1cc(C(=O)N2CCC(CO)CC2)cc(C)c1/C=C/S(=O)(=O)N1CCC2(CC1)N=C(c1ccc(F)c(OC(F)(F)F)c1)NC2=O [Compound 1161, 2-(4-Fluoro-3-trifluoromethoxy-phenyl)-8-{(E)-2-[4-(4-hydroxymethyl-piperidine-1-carbonyl)-2,6-dimethyl-phenyl]-ethenesulfonyl}-1,3,8-triaza-spiro[4.5]dec-1-en-4-one] |
| 83 | Cc1cc(N(C)C(N)=O)cc(C)c1/C=C/S(=O)(=O)N1CCC2(CC1)N=C(c1cccc(OC(F)(F)F)c1)NC2=O [Compound 1015, 1-(3,5-dimethyl-4-{(E)-2-[4-oxo-2-(3-trifluoromethoxy-phenyl)-1,3,8-triaza-spiro[4.5]dec-1-ene-8-sulfonyl]-vinyl}-phenyl)-1-methyl-urea] |
| 76 | CC(=O)Nc1ccc(CCS(=O)(=O)N2CCC3(CC2)N=C([C@H]2CCC[C@@H](C)C2)NC3=O)c(C)c1 [Compound 924, N-(3-methyl-4-{2-[2-((1S,3R)-3-methyl-cyclohexyl)-4-oxo-1,3,8-triaza-spiro[4.5]dec-1-ene-8-sulfonyl]-ethyl}-phenyl)-acetamide] |
| 93 | Cc1cc(C(=O)N2CCC(C)(O)CC2)cc(C)c1/C=C/[S@TB4](=O)(=O)N1CCC2(CC1)N=C(c1cccc(OCCCC(F)(F)C(F)(F)F)c1)NC2=O [Compound 1096, 8-{(E)-2-[4-(4-hydroxy-4-methyl-piperidine-1-carbonyl)-2,6-dimethyl-phenyl]-ethenesulfonyl}-2-[3-(4,4,5,5,5-pentafluoro-pentyloxy)-phenyl]-1,3,8-triaza-spiro[4.5]dec-1-en-4-one] |
| 18 | Cc1cc2ccc1CCS(=O)(=O)N1CCC3(CC1)N=C(NC3=O)c1cc(cc(C(F)(F)F)c1)OCC[C@H](O)[C@H](O)COCCN(C)C2=O [Compound 1439] |

Continued, compound first:

| SMILES | cAMP production activity (%) |
| --- | --- |
| Cc1cc(C(=O)N2CCC(F)C2)ccc1CCS(=O)(=O)N1CCC2(CC1)N=C(c1cccc(C(F)(F)F)c1)NC2=O (stereo not shown) [Compound 378, 8-{2-[4-(3-fluoro-pyrrolidine-1-carbonyl)-2-methyl-phenyl]-ethanesulfonyl}-2-(3-trifluoromethyl-phenyl)-1,3,8-triaza-spiro[4.5]dec-1-en-4-one] | 60 |
| O=C1NC(C2CCCCC2)=NC12CCN(S(=O)(=O)CCc1nccs1)CC2 [Compound 345, 2-Cyclohexyl-8-(2-thiazol-2-yl-ethanesulfonyl)-1,3,8-triaza-spiro[4.5]dec-1-en-4-one] | 21 |
| O=C(CCc1ccccc1)N1CCCC(C2=NC3(CCN(S(=O)(=O)CCc4cccc5ccccc45)CC3)C(=O)N2)C1 (stereo not shown) [Compound 429, 8-(2-naphthalen-1-yl-ethanesulfonyl)-2-[1-(3-phenyl-propionyl)-piperidin-3-yl]-1,3,8-triaza-spiro[4.5]dec-1-en-4-one] | 38 |
| Cc1cc(C(=O)N2CCN(c3ncccn3)CC2)ccc1CCS(=O)(=O)N1CCC2(CC1)N=C(c1cccc(C(F)(F)F)c1)NC2=O [Compound 359, 8-{2-[2-methyl-4-(4-pyrimidin-2-yl-piperazine-1-carbonyl)-phenyl]-ethanesulfonyl}-2-(3-trifluoromethyl-phenyl)-1,3,8-triaza-spiro[4.5]dec-1-en-4-one] | 65 |
| Cc1cc(C(=O)N2CCS(=O)(=O)CC2)ccc1/C=C/S(=O)(=O)N1CCC2(CC1)N=C(C1CCCCC1)NC2=O [Compound 502, 2-cyclohexyl-8-{(E)-2-[4-(1,1-dioxo-1λ^6-thiomorpholine-4-carbonyl)-2-methyl-phenyl]-ethenesulfonyl}-1,3,8-triaza-spiro[4.5]dec-1-en-4-one] | 14 |
| COC(=O)c1ccccc1S(=O)(=O)N1CCC2(CC1)N=C(C1CCCCC1)NC2=O [Compound 51, 2-(2-Cyclohexyl-4-oxo-1,3,8-triaza-spiro[4.5]dec-1-ene-8-sulfonyl)-benzoic acid methyl ester] | 38 |
| Cc1cc(N(C)c2ncc[nH]2)cc(C)c1CCS(=O)(=O)N1CCC2(CC1)N=C(C1CCC(C)CC1)NC2=O (stereo not shown) [Compound 868, 8-(2-{4-[(1H-imidazol-2-yl)-methyl-amino]-2,6-dimethyl-phenyl}-ethanesulfonyl)-2-(4-methyl-cyclohexyl)-1,3,8-triaza-spiro[4.5]dec-1-en-4-one] | 77 |
| O=C1NC(c2cccc(OC(F)(F)F)c2)=NC12CCN(S(=O)(=O)CCc1ccc3c(ccn3C[C@H](O)CO)c1)CC2 [Compound 850, 8-{2-[1-((S)-2,3-dihydroxy-propyl)-1H-indol-5-yl]-ethanesulfonyl}-2-(3-trifluoromethoxy-phenyl)-1,3,8-triaza-spiro[4.5]dec-1-en-4-one] | 82 |
| Cc1cc(C(=O)N2CCN(C)CC2)ccc1CCS(=O)(=O)N1CCC2(CC1)N=C(c1cccc(OC(F)(F)F)c1)NC2=O [Compound 843, 8-{2-[2-methyl-4-(4-methyl-piperazine-1-carbonyl)-phenyl]-ethanesulfonyl}-2-(3-trifluoromethoxy-phenyl)-1,3,8-triaza-spiro[4.5]dec-1-en-4-one] | 77 |
| CNC(=O)c1ccccc1CCS(=O)(=O)N1CCC2(CC1)N=C(C1CCCCC1)NC2=O [Compound 421, 2-[2-(2-Cyclohexyl-4-oxo-1,3,8-triaza-spiro[4.5]dec-1-ene-8-sulfonyl)-ethyl]-N-methyl-benzamide] | 68 |
| [2H]C([2H])([2H])C([2H])([2H])C([2H])([2H])C([2H])([2H])Oc1ccc(C2=NC3(CCN(S(=O)(=O)/C=C/c4c(C)cc(C(=O)N5CCC(O)(CF)CC5)cc4C)CC3)C(=O)N2)cc1C(F)(F)F [Compound 1261, 2-(4-[1,1,2,2,3,3,4,4,4-^2H9]butoxy-3-trifluoromethyl-phenyl)-8-{(E)-2-[4-(4-fluoromethyl-4-hydroxy-piperidine-1-carbonyl)-2,6-dimethyl-phenyl]-ethenesulfonyl}-1,3,8-triaza-spiro[4.5]dec-1-en-4-one] | 99 |
| O=C1NC(C2CCCCC2)=NC12CCN(S(=O)(=O)c1ccc(Cl)s1)CC2 [Compound 55, 8-(5-chloro-thiophene-2-sulfonyl)-2-cyclohexyl-1,3,8-triaza-spiro[4.5]dec-1-en-4-one] | 55 |
| O=C(c1c[nH]c2cccc(CCS(=O)(=O)N3CCC4(CC3)N=C(C3CCCCC3)NC4=O)c12)C(F)(F)F [Compound 649, 2-cyclohexyl-8-{2-[3-(2,2,2-trifluoro-acetyl)-1H-indol-4-yl]-ethanesulfonyl}-1,3,8-triaza-spiro[4.5]dec-1-en-4-one] | 40 |
| COCCN(C(C)=O)c1ccc(CCS(=O)(=O)N2CCC3(CC2)N=C(C2CCC(CCC(F)(F)F)CC2)NC3=O)c(C)c1 (stereo not shown) [Compound 755, N-(2-methoxy-ethyl)-N-[3-methyl-4-(2-{4-oxo-2-[4-(3,3,3-trifluoro-propyl)-cyclohexyl]-1,3,8-triaza-spiro[4.5]dec-1-ene-8-sulfonyl}-ethyl)-phenyl]-acetamide] | 74 |
| Cc1cc(C(=O)N2CCN(CCCN(C)C)CC2)cc(C)c1/C=C/S(=O)(=O)N1CCC2(CC1)N=C(c1cccc(OC(F)(F)F)c1)NC2=O [Compound 397, 8-((E)-2-{4-[4-(3-dimethylamino-propyl)-piperazine-1-carbonyl]-2,6-dimethyl-phenyl}-ethenesulfonyl)-2-(3-trifluoromethoxy-phenyl)-1,3,8-triaza-spiro[4.5]dec-1-en-4-one] | 126 |
| Cc1cc(C(=O)N2CC[C@@H](O)C2)ccc1CCS(=O)(=O)N1CCC2(CC1)N=C(c1cccc(C(F)(F)F)c1)NC2=O [Compound 355, 8-{2-[4-((R)-3-hydroxy-pyrrolidine-1-carbonyl)-2-methyl-phenyl]-ethanesulfonyl}-2-(3-trifluoromethyl-phenyl)-1,3,8-triaza-spiro[4.5]dec-1-en-4-one] | 84 |
| O=C1NC(c2cccc(C(F)(F)F)c2)=NC12CCN(S(=O)(=O)CCc1cccc3ccccc13)CC2 [Compound 35, 8-(2-Naphthalen-1-yl-ethanesulfonyl)-2-(3-trifluoromethyl-phenyl)-1,3,8-triaza-spiro[4.5]dec-1-en-4-one] | 56 |
